Source: patent publication US8642590B2, “Alkylcyclohexylethers of dihydrotetraazabenzoazulenes” (Hoffmann-La Roche Inc., priority 2008, dated 2014)
Structures can show the parent of a compound that is named as a salt.

Each compound was assayed against T1, human V1a receptor (Homo sapiens, UniProt P37288) (assay: human V1a receptor binding study (3H-Vasopressin, SPA beads, HEK293 membranes)). Conditions: not given.
T1 construct: expressed in transfected cells; host or cells: HEK293 cells, transiently transfected; cell membranes prepared
T1 sequence (P37288 whole entry): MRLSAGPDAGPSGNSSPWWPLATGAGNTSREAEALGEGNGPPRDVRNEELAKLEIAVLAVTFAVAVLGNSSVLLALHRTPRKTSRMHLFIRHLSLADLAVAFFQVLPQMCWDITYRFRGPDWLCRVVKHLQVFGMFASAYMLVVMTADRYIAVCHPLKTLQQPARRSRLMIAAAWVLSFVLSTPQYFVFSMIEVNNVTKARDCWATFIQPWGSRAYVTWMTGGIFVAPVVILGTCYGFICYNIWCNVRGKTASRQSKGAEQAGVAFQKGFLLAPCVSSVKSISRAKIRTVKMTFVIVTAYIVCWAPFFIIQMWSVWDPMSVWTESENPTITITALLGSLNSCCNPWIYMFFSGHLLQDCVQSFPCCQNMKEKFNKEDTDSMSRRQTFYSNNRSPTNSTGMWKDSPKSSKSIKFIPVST
Experimental: The human V1a receptor was cloned by RT-PCR from total human liver RNA. The coding sequence was subcloned in an expression vector after sequencing to confirm the identity of the amplified sequence. […] Cell membranes were prepared from HEK293 cells transiently transfected with the expression vector and grown in 20 liter fermenters with the following protocol.
50 g of cells are resuspended in 30 ml freshly prepared ice cold Lysis buffer (50 mM HEPES, 1 mM EDTA, 10 mM magnesium dichloride adjusted to pH=7.4+complete cocktail of protease inhibitor (Roche Diagnostics)). Homogenized with Polytron for 1 min and sonicated on ice for 2×2 minutes at 80% intensity (Vibracell sonicator). The preparation is centrifuged 20 min at 500 g at 4° C., the pellet is discarded and the supernatant centrifuged 1 hour at 43,000 g at 4° C. (19,000 rpm). The pellet is resuspended in 12.5 ml Lysis buffer+12.5 ml Sucrose 20% and homogenized using a Polytron for 1-2 min. The protein concentration is determined by the Bradford method and aliquots are stored at −80° C. until use. For binding studies 60 mg Yttrium silicate SPA beads (Amersham) are mixed with an aliquot of membrane in binding buffer (50 mM Tris, 120 mM sodium chloride, 5 mM potassium chloride, 2 mM Calcium dichloride, 10 mM magnesium dichloride) for 15 minutes with mixing. 50 μl of bead/membrane mixture is then added to each well of a 96 well plate, followed by 50 μl of 4 nM 3H-Vasopressin (American Radiolabeled Chemicals). For total binding measurement 100 μl of binding buffer are added to the respective wells, for non-specific binding 100 μl of 8.4 mM cold vasopressin and for compound testing 100 μl of a serial dilution of each compound in 2% dimethyl sulfoxide. The plate is incubated 1 h at room temperature, centrifuged 1 min at 1000 g and counted on a Packard Top-Count. Non-specific binding counts are subtracted from each well and data is normalized to the maximum specific binding set at 100%. To calculate an IC 50 the curve is fitted using a non-linear regression model (XLfit) and the Ki is calculated using the Cheng-Prussoff equation.

`CC(C)(C)OC(=O)N1Cc2cc(Cl)ccc2-n2c(nnc2[C@H]2CC[C@H](OC3COC3)CC2)C1` [Example 57, trans-8-Chloro-1-[4-(oxetan-3-yloxy)-cyclohexyl]-4H,6H-2,3,5,10b-tetraaza-benzo[e]azulene-5-carboxylic acid tert-butyl ester] gave a Ki of 6.17 nM.

Same assay, conditions: membranes of HEK293 cells transiently transfected with human V1a receptor; 3H-Vasopressin; Ki calculated using the Cheng-Prussoff equation; read-out: pKi (hV1a) (converted)

In order of falling Ki:
1. Clc1ccc2c(c1)CNCc1nnc([C@H]3CC[C@H](OC4CCOCC4)CC3)n1-2 [Example 61, trans-8-Chloro-1-[4-(tetrahydro-pyran-4-yloxy)-cyclohexyl]-5,6-dihydro-4H-2,3,5,10b-tetraaza-benzoazulene hydrochloride]  447 nM
2. Clc1ccc2c(c1)CNCc1nnc([C@H]3CC[C@@H](OC4CCOCC4)CC3)n1-2 [Example 63, cis-8-Chloro-1-[4-(tetrahydro-pyran-4-yloxy)-cyclohexyl]-5,6-dihydro-4H-2,3,5,10b-tetraaza-benzoazulene hydrochloride]  288 nM
3. FC(F)(F)O[C@H]1CC[C@H](c2nnc3n2-c2ccc(Cl)cc2CNC3)CC1 [Example 66, trans-8-Chloro-1-(4-trifluoromethoxy-cyclohexyl)-5,6-dihydro-4H-2,3,5,10b-tetraaza-benzo[e]azulene hydrochloride]  195 nM
4. CN1Cc2cc(Cl)ccc2-n2c(nnc2[C@H]2CC[C@H](OC3COC3)CC2)C1 [Example 58, trans-8-Chloro-5-methyl-1-[4-(oxetan-3-yloxy)-cyclohexyl]-5,6-dihydro-4H-2,3,5,10b-tetraaza-benzo[e]azulene]  46.8 nM
5. CN1Cc2cc(Cl)ccc2-n2c(nnc2[C@H]2CC[C@H](OC(F)(F)F)CC2)C1 [Example 67, trans-8-Chloro-5-methyl-1-(4-trifluoromethoxy-cyclohexyl)-5,6-dihydro-4H-2,3,5,10b-tetraaza-benzo[e]azulene]  26.3 nM
6. CN1Cc2cc(Cl)ccc2-n2c(nnc2[C@H]2CC[C@H](OC3CCOCC3)CC2)C1 [Example 62, trans-8-Chloro-5-methyl-1-[4-(tetrahydro-pyran-4-yloxy)-cyclohexyl]-5,6-dihydro-4H-2,3,5,10b-tetraaza-benzoazulene]  20 nM
7. CN1Cc2cc(Cl)ccc2-n2c(nnc2[C@H]2CC[C@@H](OC3CCOCC3)CC2)C1 [Example 64, cis-8-Chloro-5-methyl-1-[4-(tetrahydro-pyran-4-yloxy)-cyclohexyl]-5,6-dihydro-4H-2,3,5,10b-tetraaza-benzoazulene]  17 nM
8. CC(C)(C)OC(=O)N1Cc2cc(Cl)ccc2-n2c(nnc2[C@H]2CC[C@H](OC(F)(F)F)CC2)C1 [Example 65, trans-8-Chloro-1-(4-trifluoromethoxy-cyclohexyl)-4H,6H-2,3,5,10b-tetraaza-benzo[e]azulene-5-carboxylic acid tert-butyl ester]  14.5 nM
9. CC(C)(C)OC(=O)N1Cc2cc(Cl)ccc2-n2c(nnc2[C@H]2CC[C@@H](OC3CCOCC3)CC2)C1 [Example 60, cis-8-Chloro-1-[4-(tetrahydro-pyran-4-yloxy)-cyclohexyl]-4H,6H-2,3,5,10b-tetraaza-benzoazulene-5-carboxylic acid tert-butyl ester]  7.08 nM
10. CC(C)(C)OC(=O)N1Cc2cc(Cl)ccc2-n2c(nnc2[C@H]2CC[C@H](OC3CCOCC3)CC2)C1 [Example 59, trans-8-Chloro-1-[4-(tetrahydro-pyran-4-yloxy)-cyclohexyl]-4H,6H-2,3,5,10b-tetraaza-benzoazulene-5-carboxylic acid tert-butyl ester]  5.62 nM
11. CC(C)(C)OC(=O)N1Cc2cc(Cl)ccc2-n2c(nnc2[C@H]2CC[C@H](OC(C)(C)C)CC2)C1 [Example 68, trans-1-(4-tert-Butoxy-cyclohexyl)-8-chloro-4H,6H-2,3,5,10b-tetraaza-benzo[e]azulene-5-carboxylic acid tert-butyl ester]  3.8 nM
